Results as given in patent US5843889A, “Glycopeptide antibiotic derivatives” (Eli Lilly and Company, priority 1997, dated 1998).
Converted amounts (≈) assume the structure as drawn.

Columns and labels:
Type in all cases: cell-based
[1] = test system: Entercoccus faecalis 2041; experiment: MIC, standard broth micro-dilution assay
Method: (§1) The formula I compounds have in vitro and in vivo activity against Gram-positive pathogenic bacteria. The MIC's were determined using a standard broth micro-dilution assay.

[2] = test system: Entercoccus faecalis 276; experiment: MIC, standard broth micro-dilution assay
Method: as §1

[3] = test system: Entercoccus gallinarum 245; experiment: MIC, standard broth micro-dilution assay
Method: as §1

[4] = test system: Pedicoccus acidilacti; experiment: MIC, agar dilution on brain-heart infusion agar; conditions: Pedioccccus acidilacti (mean of 10)
[5] = test system: Pediococcus pentosaceus; experiment: MIC, agar dilution on brain-heart infusion agar; conditions: Pediococcus pentosaceus (mean of 2)
[6] = test system: Leuconostoc lactis; experiment: MIC, agar dilution on brain-heart infusion agar; conditions: Leuconostoc lactis (mean of 2)
[7] = test system: Leuconostoc mesenteroides; experiment: MIC, agar dilution on brain-heart infusion agar; conditions: Leuconostoc mesenteroides (mean of 4)
[8] = test system: Leuconostoc pseudomesenteroides; experiment: MIC, agar dilution on brain-heart infusion agar
[9] = test system: Lactobacillus confusus; experiment: MIC, agar dilution on brain-heart infusion agar
[10] = test system: Leuconostoc citreum; experiment: MIC, agar dilution on brain-heart infusion agar

MIC [1] [µg/mL] | MIC [2] [µg/mL] | MIC [3] [µg/mL] | MIC [4] [µg/mL] | MIC [5] [µg/mL] | MIC [6] [µg/mL] | MIC [7] [µg/mL] | MIC [8] [µg/mL] | MIC [9] [µg/mL] | MIC [10] [µg/mL] | Structure (SMILES)
≤ 0.06 | 0.5 (≈ 0.279 µM) | ≤ 0.06 | 12 (≈ 6.7 µM) | 23 (≈ 12.8 µM) | 8.0 (≈ 4.47 µM) | 10 (≈ 5.58 µM) | 32 (≈ 17.9 µM) | 16 (≈ 8.93 µM) | – | CNC(CC(C)C)C(=O)NC1C(=O)NC(CC(N)=O)C(=O)NC2C(=O)NC3C(=O)NC(C(=O)NC(C(=O)O)c4cc(O)cc(O)c4-c4cc3ccc4O)C(OC3CC(C)(N)C(O)C(C)O3)c3ccc(c(Cl)c3)Oc3cc2cc(c3OC2OC(CO)C(O)C(O)C2OC2CC(C)(NCc3ccc(Sc4ccccc4)cc3)C(O)C(C)O2)Oc2ccc(cc2Cl)C1O (stereo not drawn) [Compound 108, 4-thiophenylbenzyl]
0.25 (≈ 0.14 µM) | 0.25 (≈ 0.14 µM) | 0.25 (≈ 0.14 µM) | 4.0 (≈ 2.24 µM) | 8.0 (≈ 4.48 µM) | 5.7 (≈ 3.19 µM) | 6.7 (≈ 3.75 µM) | 16 (≈ 8.97 µM) | 8 (≈ 4.48 µM) | 32 (≈ 17.9 µM) | CNC(CC(C)C)C(=O)NC1C(=O)NC(CC(N)=O)C(=O)NC2C(=O)NC3C(=O)NC(C(=O)NC(C(=O)O)c4cc(O)cc(O)c4-c4cc3ccc4O)C(OC3CC(C)(N)C(O)C(C)O3)c3ccc(c(Cl)c3)Oc3cc2cc(c3OC2OC(CO)C(O)C(O)C2OC2CC(C)(NCc3ccc(C=Cc4ccccc4)cc3)C(O)C(C)O2)Oc2ccc(cc2Cl)C1O (stereo not drawn) [Compound 29, 4-stilbenzyl]
≤ 0.06 | ≤ 0.06 | ≤ 0.06 | 7.5 (≈ 4.23 µM) | 16 (≈ 9.02 µM) | 16 (≈ 9.02 µM) | 16 (≈ 9.02 µM) | 32 (≈ 18 µM) | 32 (≈ 18 µM) | – | CNC(CC(C)C)C(=O)NC1C(=O)NC(CC(N)=O)C(=O)NC2C(=O)NC3C(=O)NC(C(=O)NC(C(=O)O)c4cc(O)cc(O)c4-c4cc3ccc4O)C(OC3CC(C)(N)C(O)C(C)O3)c3ccc(c(Cl)c3)Oc3cc2cc(c3OC2OC(CO)C(O)C(O)C2OC2CC(C)(NCc3ccc(Oc4ccccc4)cc3)C(O)C(C)O2)Oc2ccc(cc2Cl)C1O (stereo not drawn) [Compound 4, p-phenoxybenzyl.cndot.A82846B]
– | 0.5 (≈ 0.284 µM) | ≤ 0.06 | 5.9 (≈ 3.35 µM) | 11 (≈ 6.25 µM) | 4.0 (≈ 2.27 µM) | 16 (≈ 9.1 µM) | 32 (≈ 18.2 µM) | 16 (≈ 9.1 µM) | – | CNC(CC(C)C)C(=O)NC1C(=O)NC(CC(N)=O)C(=O)NC2C(=O)NC3C(=O)NC(C(=O)NC(C(=O)O)c4cc(O)cc(O)c4-c4cc3ccc4O)C(OC3CC(C)(N)C(O)C(C)O3)c3ccc(c(Cl)c3)Oc3cc2cc(c3OC2OC(CO)C(O)C(O)C2OC2CC(C)(NCc3ccc(-c4ccccc4)cc3)C(O)C(C)O2)Oc2ccc(cc2Cl)C1O (stereo not drawn) [Compound 2, p-phenylbenzyl.cndot.A82846B]
– | – | – | – | 16 (≈ 9.04 µM) | 16 (≈ 9.04 µM) | 16 (≈ 9.04 µM) | – | 16 (≈ 9.04 µM) | 64 (≈ 36.1 µM) | CNC(CC(C)C)C(=O)NC1C(=O)NC(CC(N)=O)C(=O)NC2C(=O)NC3C(=O)NC(C(=O)NC(C(=O)O)c4cc(O)cc(O)c4-c4cc3ccc4O)C(OC3CC(C)(N)C(O)C(C)O3)c3ccc(c(Cl)c3)Oc3cc2cc(c3OC2OC(CO)C(O)C(O)C2OC2CC(C)(NCc3ccc4c(c3)Cc3ccccc3-4)C(O)C(C)O2)Oc2ccc(cc2Cl)C1O (stereo not drawn) [Compound 32, 2-fluorenylmethyl]

Structure (SMILES) | MIC [1] [µg/mL] | MIC [2] [µg/mL] | MIC [3] [µg/mL] | MIC [4] [µg/mL] | MIC [5] [µg/mL] | MIC [6] [µg/mL] | MIC [7] [µg/mL] | MIC [8] [µg/mL] | MIC [9] [µg/mL] | MIC [10] [µg/mL]
CNC(CC(C)C)C(=O)NC1C(=O)NC(CC(N)=O)C(=O)NC2C(=O)NC3C(=O)NC(C(=O)NC(C(=O)O)c4cc(O)cc(O)c4-c4cc3ccc4O)C(OC3CC(C)(N)C(O)C(C)O3)c3ccc(c(Cl)c3)Oc3cc2cc(c3OC2OC(CO)C(O)C(O)C2OC2CC(C)(NCc3ccc(-c4ccc(-c5ccccc5)cc4)cc3)C(O)C(C)O2)Oc2ccc(cc2Cl)C1O (stereo not drawn) [Compound 36, 4-[4-biphenyl]benzyl] | 1 (≈ 0.545 µM) | 2 (≈ 1.09 µM) | 0.25 (≈ 0.136 µM) | 9.2 (≈ 5.01 µM) | 16 (≈ 8.72 µM) | 16 (≈ 8.72 µM) | 16 (≈ 8.72 µM) | 32 (≈ 17.4 µM) | 32 (≈ 17.4 µM) | 32 (≈ 17.4 µM)
